Several values for one entry are separate records, joined by “and”; a condition that tells them apart may be missing. Equal values may be shown once.
experiment: RSV-A Assay: The description is Japanese.

Structure (SMILES) | EC50
O=C1Nc2ccccc2C(c2ccccc2)=N[C@@H]1Nc1nnc(-c2cn(-c3ccc(C(F)(F)F)nc3)nc2N2CCOCC2)o1 | < 400 nM and in the range around 600 nM
O=C1Nc2ccccc2C(c2ccccc2)=N[C@H]1Nc1nnc(-c2ccc(N3CCOCC3)cc2F)o1 | > 800 nM
O=C(O)c1cnc(C(F)(F)F)nc1N1CCOCC1 | < 400 nM
COC(=O)c1ccc(N2CCCC2)cc1N1CCOCC1 | < 400 nM
O=C1Nc2ccccc2C(c2ccccc2)=NC1Nc1nnc(-c2ccc(-n3cccn3)nc2)o1 (configuration not stated) | > 800 nM
COCCCc1sc(C)nc1-c1nnc(N[C@H]2N=C(c3ccccc3)c3ccccc3NC2=O)o1 | > 800 nM
COc1ccc(-c2nnc(NC3N=C(c4ccccc4)c4ccccc4NC3=O)o2)cc1 (configuration not stated) | > 800 nM
CO[C@@H](C)CNc1sc(C(F)(F)F)nc1-c1nnc(N[C@H]2N=C(c3ccccc3)c3ccccc3NC2=O)o1 | < 400 nM
CC(=O)N1CCC(c2nnc(NC3N=C(c4ccccc4)c4ccccc4NC3=O)o2)CC1 (configuration not stated) | > 800 nM
O=C1Nc2ccccc2C(c2ccccc2)=N[C@@H]1Nc1nnc(-c2ncc(Br)cc2N2CCOCC2)o1 | < 400 nM
COCCNc1sc(C(F)(F)F)nc1-c1nnc(N[C@H]2N=C(c3ccccc3)c3ccccc3NC2=O)o1 | < 400 nM
O=C1Nc2ccccc2C(c2ccccc2)=NC1Nc1nnc(-c2ccncc2)o1 (configuration not stated) | in the range around 600 nM
O=C1Nc2ccccc2C(c2ccccc2)=NC1Nc1nnc(-c2ccccc2)o1 (configuration not stated) | > 800 nM
N#Cc1cc(-c2nnc(NC3N=C(c4ccccc4)c4ccccc4NC3=O)o2)ccc1F (configuration not stated) | in the range around 600 nM
O=C1Nc2ccccc2C(c2ccccc2)=N[C@@H]1Nc1nnc(-c2cnc(C(F)(F)F)nc2N2CC3CCC(C2)O3)o1 | > 800 nM
O=C1Nc2ccccc2C(c2ccccc2)=N[C@@H]1Nc1nnc(-c2nc(C(F)(F)F)sc2N[C@@H]2CCOC2)o1 | < 400 nM
O=C1Nc2ccccc2C(c2ccccc2)=NC1Nc1nnc(C2CCCC2)o1 (configuration not stated) | > 800 nM
CN(C)c1ccc(-c2nnc(NC3N=C(c4ccccc4)c4ccccc4NC3=O)o2)nc1 (configuration not stated) | > 800 nM
O=C1Nc2ccccc2C(c2ccccc2)=NC1Nc1nnc(-c2ccc(F)cn2)o1 (configuration not stated) | > 800 nM
O=C1Nc2ccccc2C(c2ccccc2)=NC1Nc1nc(-c2ccccc2)no1 (configuration not stated) | > 800 nM
O=C1Nc2ccccc2C(c2ccccc2)=N[C@@H]1Nc1nnc(-c2oc3cc(F)ccc3c2N2CCOCC2)o1 | in the range around 600 nM
CN[C@H](c1ccccc1)c1nnc(NC2N=C(c3ccccc3)c3ccccc3NC2=O)o1 (some centres not stated) | > 800 nM
O=C1Nc2ccccc2C(c2ccccc2)=N[C@@H]1Nc1nnc(-c2cnc(N3CCOCC3)nc2)o1 | in the range around 600 nM

Structure (SMILES) | EC50
O=C1Nc2ccccc2C(c2ccccc2)=N[C@@H]1Nc1nnc(-c2nc(-c3ccc(F)cc3)sc2N2CCOCC2)o1 | < 400 nM
CN1CCC(c2nnc(NC3N=C(c4ccccc4)c4ccccc4NC3=O)o2)CC1 (configuration not stated) | > 800 nM
O=C1Nc2ccccc2C(c2ccccc2)=NC1Nc1nnc([C@@H]2CCCN2C2CCNCC2)o1 (some centres not stated) | > 800 nM
O=C1Nc2ccccc2C(c2ccccc2)=NC1Nc1nc2ccc(F)cc2o1 (configuration not stated) | > 800 nM
O=C1Nc2ccccc2C(c2ccccc2)=N[C@@H]1Nc1nnc(-c2ccc(N3CCOCC3)cc2F)o1 | < 400 nM
CC1(c2nnc(NC3N=C(c4ccccc4)c4ccccc4NC3=O)o2)CCNC1 (configuration not stated) | > 800 nM
O=C1Nc2ccccc2C(c2ccccc2)=NC1Nc1nnc(-c2cccnc2)o1 (configuration not stated) | > 800 nM
CC(C)Oc1cccc(-c2nnc(NC3N=C(c4ccccc4)c4ccccc4NC3=O)o2)c1 (configuration not stated) | in the range around 600 nM
CCOC(=O)c1ncccc1N1CCOCC1 | < 400 nM
N#Cc1ccc(-c2nnc(N[C@H]3N=C(c4ccccc4)c4ccccc4NC3=O)o2)c(-c2ccsc2)c1 | > 800 nM
CN(C)CCOc1ccccc1-c1nnc(NC2N=C(c3ccccc3)c3ccccc3NC2=O)o1 (configuration not stated) | > 800 nM
CC(F)(F)c1nc(-c2nnc(N[C@H]3N=C(c4ccccc4)c4ccccc4NC3=O)o2)c(N2CCOCC2)s1 | < 400 nM
CCOC(=O)c1nc2ccccn2c1N | > 800 nM
COc1ccc(-c2ccc(NC3N=C(c4ccccc4)c4ccccc4NC3=O)nn2)cc1 (configuration not stated) | > 800 nM
CCc1nc(-c2nnc(N[C@H]3N=C(c4ccccc4)c4ccccc4NC3=O)o2)c(N2CCOCC2)s1 | < 400 nM
CN1CCN(c2ncccc2-c2nnc(NC3N=C(c4ccccc4)c4ccccc4NC3=O)o2)CC1 (configuration not stated) | > 800 nM
O=C1Nc2ccccc2C(c2ccccc2)=NC1Nc1nnc(-c2ccc(F)cc2N2CCOCC2)o1 (configuration not stated) | < 400 nM
O=C1Nc2ccccc2C(c2ccccc2)=NC1Nc1nc2ccc(Cl)cc2o1 (configuration not stated) | > 800 nM
Cc1ccc(-c2nnc(NC3N=C(c4ccccc4)c4ccccc4NC3=O)o2)s1 (configuration not stated) | > 800 nM
COC[C@@H]1C[C@H]1c1cc(C(F)(F)F)cnc1-c1nnc(N[C@H]2N=C(c3ccccc3)c3ccccc3NC2=O)o1 | > 800 nM
CCOC(=O)c1nc(C2(O)CCC2)sc1N1CCOCC1 | < 400 nM
O=C1Nc2ccccc2C(c2ccccc2)=NC1Nc1ncc(-c2ccccc2)cn1 (configuration not stated) | > 800 nM
N#Cc1ccc(N2CCOCC2)c(-c2nnc(N[C@H]3N=C(c4ccccc4)c4ccccc4NC3=O)o2)n1 | < 400 nM

Structure (SMILES) | EC50
COC[C@@H](C)Nc1sc(C(F)(F)F)nc1-c1nnc(N[C@H]2N=C(c3ccccc3)c3ccccc3NC2=O)o1 | in the range around 600 nM
C#Cc1cnc(-c2nnc(N[C@H]3N=C(c4ccccc4)c4ccccc4NC3=O)o2)c(N2CCOCC2)c1 | < 400 nM
O=C1Nc2ccccc2C(c2ccccc2)=NC1Nc1nnc(C2CCNC2)o1 (configuration not stated) | > 800 nM
O=C1Nc2ccccc2C(c2ccccc2)=NC1Nc1ccc(-c2ccc(F)cc2)nn1 (configuration not stated) | > 800 nM
CNc1cc(C(F)(F)F)cnc1-c1nnc(N[C@H]2N=C(c3ccccc3)c3ccccc3NC2=O)o1 | > 800 nM
COC(=O)c1cc(C2CC2)sc1N1CCOCC1 | < 400 nM
Cc1cc(-c2nnc(NC3N=C(c4ccccc4)c4ccccc4NC3=O)o2)ccc1N1CCOCC1 (configuration not stated) | in the range around 600 nM
O=C1Nc2ccccc2C(c2ccccc2)=N[C@@H]1Nc1nnc(-c2ncc(C(F)(F)F)cc2N2C3CCC2COC3)o1 | < 400 nM
CC1(c2nc(-c3nnc(N[C@H]4N=C(c5ccccc5)c5ccccc5NC4=O)o3)c(N3CCOCC3)s2)CCC1 | < 400 nM
O=C1Nc2ccccc2C(c2ccccc2)=NC1Nc1nc2ccccc2o1 (configuration not stated) | > 800 nM
O=C1Nc2ccccc2C(c2ccccc2)=NC1Nc1nnc(-c2cccnn2)o1 (configuration not stated) | > 800 nM
COC(=O)c1nc(-c2ccccn2)sc1Cl | < 400 nM
O=C1Nc2ccccc2C(c2ccccc2)=N[C@@H]1Nc1nnc(-c2cnc(-n3cncn3)nc2N2CCOCC2)o1 | > 800 nM
CCOC(=O)c1ncc(C(F)F)cc1N1CCOCC1 | < 400 nM
N#Cc1ccc(-c2nnc(NC3N=C(c4ccccc4)c4ccccc4NC3=O)[nH]2)cc1 (configuration not stated) | in the range around 600 nM
C[C@@H]1CN(c2cc(C#N)cnc2-c2nnc(N[C@H]3N=C(c4ccccc4)c4ccccc4NC3=O)o2)CCO1 | in the range around 600 nM
COCc1ccc(-c2nnc(NC3N=C(c4ccccc4)c4ccccc4NC3=O)o2)o1 (configuration not stated) | > 800 nM
O=C1Nc2ccccc2C(c2ccccc2)=N[C@@H]1Nc1nnc(-c2oc3ccccc3c2N2CCOCC2)o1 | < 400 nM
N#Cc1cccc(C2=NC(Nc3nnc(-c4ccc(F)cc4)o3)C(=O)Nc3ccccc32)c1 (configuration not stated) | > 800 nM
O=C1Nc2c(F)cccc2C(c2ccccc2)=N[C@H]1Nc1nnc(-c2ccccc2N2CCOCC2)o1 | > 800 nM
O=C1Nc2ccccc2C(c2ccccc2)=NC1Nc1nnc(-c2ccc(N3CCOCC3)cc2Cl)o1 (configuration not stated) | > 800 nM
O=C1Nc2ccccc2C(c2ccccc2)=NC1Nc1nnc(-c2ccc(C(F)(F)F)cc2)o1 (configuration not stated) | > 800 nM
CN1CCC(N2CCC[C@H]2c2nnc(NC3N=C(c4ccccc4)c4ccccc4NC3=O)o2)CC1 (some centres not stated) | > 800 nM

Structure (SMILES) | EC50
NS(=O)(=O)c1ccc(-c2nnc(NC3N=C(c4ccccc4)c4ccccc4NC3=O)o2)cc1 (configuration not stated) | in the range around 600 nM
COCCCc1cc(C(F)(F)F)cnc1C(=O)NN | > 800 nM
O=C1Nc2c(F)cccc2C(c2ccccc2)=N[C@H]1Nc1nnc(-c2cccnc2N2CCOCC2)o1 | > 800 nM and < 400 nM
CS(=O)(=O)c1ccc(-c2nnc(NC3N=C(c4ccccc4)c4ccccc4NC3=O)o2)nc1 (configuration not stated) | > 800 nM
O=C1Nc2ccccc2C(c2ccccc2)=N[C@@H]1Nc1nnc(-c2nc(C3CC3)ccc2N2CCOCC2)o1 | < 400 nM
O=C1Nc2ccccc2C(c2ccccc2)=NC1Nc1nnc(-c2ccc(Cl)o2)o1 (configuration not stated) | > 800 nM
O=C1Nc2ccccc2C(c2ccccc2)=NC1Nc1nnc(-c2ccc(F)cc2)s1 (configuration not stated) | > 800 nM
O=C1Nc2ccccc2C(c2ccccc2)=N[C@@H]1Nc1nnc(-c2ncc(C(F)(F)F)cc2N2CC3CCC(C2)O3)o1 | < 400 nM
COC1CN(c2ncccc2-c2nnc(NC3N=C(c4ccccc4)c4ccccc4NC3=O)o2)C1 (configuration not stated) | > 800 nM
O=C1Nc2ccccc2C(c2ccccc2)=NC1Nc1nnc(C2CC2)o1 (configuration not stated) | > 800 nM
O=C1Nc2ccccc2C(c2ccccc2)=NC1Nc1nnc(-c2ccc(NC3CCCCC3)cc2)o1 (configuration not stated) | > 800 nM
Cc1cc(-c2nnc(NC3N=C(c4ccccc4)c4ccccc4NC3=O)o2)ccc1C#N (configuration not stated) | in the range around 600 nM
COCCN(C)c1ccc(-c2nnc(NC3N=C(c4ccccc4)c4ccccc4NC3=O)o2)cc1 (configuration not stated) | > 800 nM
O=C1Nc2ccccc2C(c2ccccc2)=N[C@@H]1Nc1nnc(-c2cc3ccccc3nc2N2CCOCC2)o1 | < 400 nM
O=C1Nc2ccccc2C(c2ccccc2)=N[C@@H]1Nc1nnc(-c2cnc(-n3cccn3)nc2N2CCOCC2)o1 | > 800 nM
O=C1Nc2ccccc2C(c2ccccc2)=NC1Nc1nnc(-c2nc(Br)sc2N2CCOCC2)o1 (configuration not stated) | < 400 nM
O=C1Nc2ccccc2C(c2ccccc2)=NC1Nc1cc(Oc2ccccc2)ncn1 (configuration not stated) | > 800 nM
CS(=O)(=O)c1cnc(-c2nnc(N[C@H]3N=C(c4ccccc4)c4ccccc4NC3=O)o2)c(N2CCOCC2)c1 | > 800 nM
O=C1Nc2ccccc2C(c2ccccc2)=NC1Nc1ncc(-c2ccccc2)o1 (configuration not stated) | > 800 nM
O=C1Nc2ccccc2C(c2ccccc2)=NC1Nc1nnc(-c2cccnc2N2C[C@H]3C[C@@H]2CO3)o1 (some centres not stated) | > 800 nM
O=C1Nc2ccccc2C(c2ccccc2)=N[C@@H]1Nc1nnc(-c2ncc(C3=CCCCC3)cc2N2CCOCC2)o1 | in the range around 600 nM
O=C1Nc2ccccc2C(c2ccccc2)=N[C@@H]1Nc1nnc(-c2cnn(-c3ccccc3)c2)o1 | in the range around 600 nM
O=C1Nc2ccccc2C(c2ccccc2)=NC1Nc1nnc(-c2cnco2)o1 (configuration not stated) | > 800 nM

Source: ChEMBL document CHEMBL5729210, “Benzodiazepine derivatives as RSV inhibitors” (2022)
